In ChEMBL document CHEMBL1148315, “Photoaffinity labeling of the anionic sites in Caco-2 cells mediating saturable transport of hydrophilic cations ranitidine and famotidine” (2004):

Columns and labels:
Type in all cases: functional, Homo sapiens
Caco-2 [1] = assay: Inhibition of irreversible increase in transepithelial electrical resistance across Caco-2 cell monolayer by the compound in the presence of 5 mM of famotidine
Caco-2 [2] = assay: Inhibition of Ranitidine transport across Caco-2 cell monolayer by the compound (200 uM) After photoactivation at 254 nM
Caco-2 [3] = assay: Inhibition of apical to basolateral transport of Ranitidine (100 uM) across Caco-2 cell monolayer in the presence of 300 uM of compound
Caco-2 [4] = assay: Ability to increase the transepithelial electrical resistance across Caco-2 cell monolayer at 200 uM concentration

## N=C(N)Nc1nc(CSCCC(=N)NS(N)(=O)=O)cs1.[N-]=[N+]=Nc1ccc(C(=O)NCCSCc2csc(NC(=N)N)n2)cc1
Caco-2 [1]
  Inhibition: 35%

## CNC(=C[N+](=O)[O-])NCCSCc1ccc(CN(C)C)o1.[N-]=[N+]=Nc1ccc(C(=O)NCCSCc2csc(NC(=N)N)n2)cc1
Caco-2 [2]
  Inhibition: 35%
Caco-2 [3]
  Inhibition: 40%

## [N-]=[N+]=Nc1ccc(C(=O)NCCSCc2csc(NC(=N)N)n2)cc1
Caco-2 [4]
  Increase: 120%
